Like-named read-outs stand apart in the source and are kept apart here.
How the values were obtained:
BSM cells [1] = assay: Microspectrofluorimetry of intracellular calcium (indo-1) after acetylcholine stimulation; assay type: cell-based, human; conditions: asthmatic BSM cells; 10^-5 M acetylcholine; 1 μM D600 with 2 mM Ca2+, or 400 μM EGTA without extracellular calcium
Description: Change in growth-arrested BSM cell intracellular calcium concentration ([Ca^2+]i), was assessed using the Ca^2+-sensitive probe indo-1, as previously described (Berger et al., J. Appl. Physiol. 91:995-1003 (2001); Trian et al., Am. J. Respir. Cell Mol. Biol. 34:49-55 (2006)). In brief, cells were loaded with indo-1 (Calbiochem) and mounted in a perfusion chamber continuously perfused with phosphate salt solution containing either 2 mM Ca2+ in the absence or presence of 1 μM D600, or 400 μM EGTA (Sigma-Aldrich) in the absence of extracellular calcium. BSM cells were stimulated with 10^−5 M acetylcholine or histamine (both from Sigma-Aldrich). Individual cell calcium levels were monitored continuously. Results were expressed as the mean±the SEM of resting or peak of [Ca^2+]i rises (in […]) and area under the curves (nanomoles/second). Experiments were carried out at room temperature (22-25° C.).

NRF-1 = assay: Western blot of NRF-1 in BSM cells; assay type: cell-based, human; conditions: asthmatic BSM cells; 1 μM D600 for 48 h
Description: (§1) To analyze the mitochondrial ultrastructure, BSM cells were growth arrested, as described in the previous section, for 6 d. Three million cells were then collected and centrifuged at 400 g for 5 min. Cell pellets were fixed in 2.5% glutaraldehyde for 2 h at 4° C. and processed for electron microscopy, as described in the previous section. Growth curves were built to assess the role of mitochondria in cell proliferation. For this purpose, 25,000 BSM cells were plated on 75-cm^2 flasks and cultured with 10% FCS-DME containing either 4.5 g/liter galactose or 4.5 g/liter glucose. […] For these latter experiments, medium was changed every 24 h, and, at the indicated time, BSM cells were harvested by trypsinization and counted in triplicate using a cytometer.
(§2) Whole lysates from BSM cells were collected using 1% Triton X-100 lysis buffer in the presence of 2 mM Na orthovanadate, 1 mM EDTA, 50 μg/ml aprotinin, 100 μM leupeptin, 1 mM 1.4 Dithio-DL-Treitol, and 1 mM amino-ethyl-benzenesulfonyl fluoride hydrochloride (all from Sigma-Aldrich). […] Blot images were acquired using BioCaptMW (Thermo Fisher Scientific), and band densities were quantified using ImageJ software.

CaMK-IV = assay: Western blot of phosphorylated CaMK-IV in BSM cells; assay type: cell-based, human; conditions: asthmatic BSM cells; 1 μM D600
Description: as §1, §2

mtTFA = assay: Western blot of mtTFA in BSM cells; assay type: cell-based, human; conditions: asthmatic BSM cells; 1 μM D600 for 48 h
Description: as §1, §2

PGC-1α = assay: Western blot of PGC-1α in BSM cells; assay type: cell-based, human; conditions: asthmatic BSM cells; 1 μM D600 for 48 h
Description: as §1, §2

porin = assay: Mitochondrial mass by porin content (Western blot) in BSM cells; assay type: cell-based, human
Description: (§3) To analyze the mitochondrial ultrastructure, BSM cells were growth arrested, as described in the previous section, for 6 d. Three million cells were then collected and centrifuged at 400 g for 5 min. Cell pellets were fixed in 2.5% glutaraldehyde for 2 h at 4° C. and processed for electron microscopy, as described in the previous section. Growth curves were built to assess the role of mitochondria in cell proliferation. For this purpose, 25,000 BSM cells were plated on 75-cm^2 flasks and cultured with 10% FCS-DME containing either 4.5 g/liter galactose or 4.5 g/liter glucose. In another set of experiments, we investigated the effects of 50 μg/liter ethidium bromide (Qbiogene) for up to 33 d, 1.3 g/liter cyclic cGMP (3 mM; Sigma-Aldrich) for up to 6 d, or […] D600, i.e., methoxyverapamil or gallopamil (1 μM; Sigma-Aldrich) for up to 2 d in 10% FCS-DME containing 4.5 g/liter glucose. For these latter experiments, medium was changed every 24 h, and, at the indicated time, BSM cells were harvested by trypsinization and counted in triplicate using a cytometer.
Whole lysates from BSM cells were collected using 1% Triton X-100 lysis buffer in the presence of 2 mM Na orthovanadate, 1 mM EDTA, 50 μg/ml aprotinin, 100 μM leupeptin, 1 mM 1.4 Dithio-DL-Treitol, and 1 mM amino-ethyl-benzenesulfonyl fluoride hydrochloride (all from Sigma-Aldrich). Cellular extracts were reduced with mercaptoethanol, subjected to electrophoresis on a 10% acrylamide reducing gel, and transferred to PVDF membranes (Immobilon TM-P; Millipore). The immunoblots were then developed using mouse anti-human porin (MitoSciences), mouse anti-human α-actin (Sigma-Aldrich), rabbit anti-human phospho-CaMK-IV, rabbit anti-human PGC-1α, rabbit anti-human NRF-1, or rabbit anti-human mitochondrial transcription factor A (mtTFA; all purchased from Santa Cruz Biotechnology, Inc.) for 14 h at 4° C. For amplification, biotinylated goat secondary antibody anti-mouse IgG (Bio-Rad Laboratories) or anti-rabbit IgG (Santa Cruz Biotechnology, Inc.) for 2 h at room temperature and a streptavidin-biotinylated horseradish peroxidase complex (Dako) were used. […] Blot images were acquired using BioCaptMW (Thermo Fisher Scientific), and band densities were quantified using ImageJ software.

BSM cells [2] = assay: BrdU incorporation (DNA synthesis) in BSM cells; assay type: cell-based, human; conditions: 10% FCS-DME glucose, ethidium bromide or cyclic GMP 24 h
Description: Growth-arrested BSM cells were cultured in 96-well plates for 24 h and stimulated with 10% FCS-DME containing glucose, galactose, ethidium bromide, or cyclic GMP for 24 h or containing D600 for 48 h, as described above. Control BSM cells remained in serum-deprived DME. DNA synthesis was measured using the BrdU kit according to the manufacturer's instructions (Roche). In brief, BSM cells were incubated with 10 μM BrdU for 2 h at 37° C. and fixed for 20 min at room temperature. Cells were denaturized for 30 min and incubated with the anti-BrdU antibody for 2 h at room temperature. Absorbance was measured at 370 nm in a microplate reader in triplicate. Results are expressed as a normalized ratio of BrdU incorporation, i.e. absorbance for test condition divided by absorbance for control serum-deprived condition.

U937, L6, and PC12 = conditions: various cell lines, including U937, L6, and PC12; cited from earlier work
BSM cells [3] = assay: BSM cell growth curves (cell counting), doubling time and proliferation; assay type: cell-based, human; conditions: for doubling time of cell growth: glucose medium + 50 μg/liter ethidium bromide or 3 mM cyclic GMP; for proliferation of BSM cells: glucose medium + ethidium bromide or cyclic GMP
Description: as §3

[4] = tested on: vascular smooth muscle cells; conditions: mesangial cells and various fibroblasts; cited from earlier work
endothelial cells = conditions: cited from earlier work

**Q.** Which results are given for “5-[2-(3,4-dimémethoxyphenyl)ethyl-methylamino]-2-propan-2-yl-2-(3,4,5-triméthoxyphenyl)pentanenitrile hydrochloride [D600]”?
**A.** abnormal calcium response (area under the curve) to acetylcholine (BSM cells [1]): abolished; activation of mitochondrial biogenesis through NRF-1 (NRF-1): inhibited; activation (phosphorylation) of CaMK-IV (CaMK-IV): inhibited; activation of mitochondrial biogenesis through mtTFA (mtTFA): inhibited; activation of mitochondrial biogenesis through PGC-α (PGC-1α): inhibited; mitochondrial content (amount of porin) (porin): blocks; BrdU incorporation (BSM cells [2]; asthmatic BSM cells, 1 μM D600 48 h): significantly inhibited

**Q.** For `O=C(O)CN(CCOCCOCCN(CC(=O)O)CC(=O)O)CC(=O)O` [EGTA], which “abnormal calcium response (area under the curve) to acetylcholine” value (BSM cells [1]) is on record?
**A.** The value was “abolished”.

**Q.** Which “PGC-1α and mitochondrial biogenesis” value (U937, L6, and PC12) does the source give for `Nc1nc2c(ncn2[C@@H]2O[C@@H]3COP(=O)(O)O[C@H]3[C@H]2O)c(=O)[nH]1` [cyclic GMP] here?
**A.** Its value is “activate”.

**Q.** What about the “doubling time of cell growth” value (BSM cells [3]; COPD BSM cells) of the same compound?
**A.** The value was “significantly decreased”.

**Q.** And the “proliferation of BSM cells” value (BSM cells [3]; COPD BSM cells)?
**A.** Its value is “increased”.

**Q.** What about the “doubling time of cell growth” value (BSM cells [3]; asthmatic BSM cells) of the same compound?
**A.** The value was “had no effect”.

**Q.** What about the “proliferation of BSM cells” value (BSM cells [3]; asthmatic BSM cells) of the same compound?
**A.** Its value is “had no effect”.

**Q.** What about the “doubling time of cell growth” value (BSM cells [3]; control BSM cells) of the same compound?
**A.** The value was “decreased”.

**Q.** And the “proliferation of BSM cells” value (BSM cells [3]; control BSM cells)?
**A.** Its value is “increased”.

**Q.** And the “mitochondrial content (amount of porin)” value (porin; COPD BSM cells, ethidium bromide or cyclic GMP 6 d)?
**A.** The value was “increased”.

**Q.** What about the “mitochondrial content (amount of porin)” value (porin; asthmatic BSM cells, ethidium bromide or cyclic GMP 6 d, 1 μM D600 48 h) of the same compound?
**A.** The value was “failed to additionally increase”.

**Q.** What about the “mitochondrial content (amount of porin)” value (porin; control BSM cells, ethidium bromide or cyclic GMP 6 d) of the same compound?
**A.** Its value is “increased”.

**Q.** And the proliferation [4]?
**A.** Its proliferation is “inhibit”.

**Q.** And the “proliferation of endothelial cells” value (endothelial cells)?
**A.** Its value is “increased”.

**Q.** And the BrdU incorporation (BSM cells [2]; COPD BSM cells)?
**A.** The BrdU incorporation was “increased”.

**Q.** What about the BrdU incorporation (BSM cells [2]; control BSM cells) of the same compound?
**A.** The BrdU incorporation was “increased”.
